Measured values from ChEMBL document CHEMBL5137099, “Discovery of Novel cccDNA Reducers toward the Cure of Hepatitis B Virus Infection” (J Med Chem, 2022).
In brackets after ≈: the same amount, converted by molar mass. Activity calls are given as the source filed them. The rule behind the calls is not given here.

Key:
Hepatitis B virus [1] = assay: Antiviral activity against HBV infected in human primary hepatocyte cells assessed as reduction in HBV cccDNA production by measuring inhibition of HBsAg secretion measured after 48 hrs by ELISA; format: functional, organism-based
[2] = Aqueous solubility of the compound; format: physicochemical; details: buffer
Hepatitis B virus [3] = assay: Antiviral activity against HBV infected in human HepDES19 cells assessed as reduction in HBV cccDNA production by measuring inhibition of HBeAg secretion incubated for 5 days by ELISA; format: functional, organism-based; details: HepDES19, 120 h
Hepatitis B virus [4] = assay: Antiviral activity against HBV infected in human HepG2 cells assessed as reduction in HBeAg secretion incubated for 5 days by counter screen assay; format: functional, organism-based; details: HepG2, 120 h
[5] = Metabolic stability in mouse hepatocytes assessed as intrinsic clearance; format: ADME, cell-based, Hepatocyte; details: read-out: CLH
[6] = Octanol-aqueous buffer distribution coefficient, log D of the compound at pH 7.4 by CAMDIS assay; format: physicochemical
[7] = Permeability of the compound by PAMPA analysis; format: ADME; details: read-out: permeability
[8] = Therapeutic index, ratio of CC50 for cytotoxicity against human HepDES19 cells assessed as reduction in cell viability measured after 5 days by CCK-8 assay to IC50 for antiviral activity against HBV infected in human HepDES19 cells assessed as reduction in HBV cccDNA production by measuring inhibition of HBeAg secretion incubated for 5 days by ELISA; format: toxicity, cell-based; details: time 5 day, read-out: Ratio CC50/IC50
Hepatitis B virus [9] = assay: Antiviral activity against HBV infected in human HepDES19 cells assessed as reduction in HBV cccDNA production by measuring inhibition of HBeAg secretion at 0.3 to 10 uM by southern blot analysis; format: functional, organism-based; details: dose 0.3-10 µM
[10] = Cytotoxicity against human HepDES19 cells assessed as reduction in cell viability measured after 5 days by CCK-8 assay; format: toxicity, cell-based; details: time 5 day

SMILES	solubility [2]	IC50 (Hepatitis B virus [3])	CLint scaled [5]	logD [6]	Papp [7]	IC50 (Hepatitis B virus [1])	IC50 (Hepatitis B virus [4])	selectivity ratio at 120 h [8]	Activity (Hepatitis B virus [9])	CC50 at 120 h [10]
O=C(O)C1CCN(c2ccc3c(=O)c4c(F)ccc(Cl)c4oc3c2)C1 (configuration not stated)	14 µg/mL (≈ 38.7 µM)	1460 nM	38.4 mL/min/kg	< -0.5	1.83 ×10⁻⁶ cm/s	8480 nM	> 50 µM			
O=C(O)C1CCN(c2ccc3c(=O)c4c(Cl)ccc(Cl)c4oc3c2)C1 (configuration not stated)	32 µg/mL (≈ 84.6 µM)	2360 nM	34.8 mL/min/kg	1.44	1.72 ×10⁻⁶ cm/s	1160 nM	> 50 µM			
O=C(O)[C@H]1CCN(c2ccc3c(=O)c4cccc(Cl)c4oc3c2)C1	> 430 µg/mL	1920 nM		1.09	3.02 ×10⁻⁶ cm/s	1580 nM	> 50 µM			

The next compounds have a lower IC50 (Hepatitis B virus [3]) than those just listed; values first:

solubility [2]	IC50 (Hepatitis B virus [3])	CLint scaled [5]	logD [6]	Papp [7]	SMILES	IC50 (Hepatitis B virus [1])	IC50 (Hepatitis B virus [4])	selectivity ratio at 120 h [8]	Activity (Hepatitis B virus [9])	CC50 at 120 h [10]
29 µg/mL (≈ 76.7 µM)	650 nM	20.3 mL/min/kg	1.42	1.19 ×10⁻⁶ cm/s	O=C(O)C1CCN(c2ccc3c(=O)c4c(Cl)ccc(Cl)c4oc3c2)C1 (single isomer, unassigned)	2610 nM	> 50 µM			
< 1 µg/mL	710 nM	86.7 mL/min/kg			O=C(Nc1ccc2c(=O)c3cccc(F)c3oc2c1)c1ccccc1F	5450 nM	> 50 µM	> 141	Active	> 100 µM
100 µg/mL (≈ 243 µM)	250 nM	11.9 mL/min/kg	1.42	1.18 ×10⁻⁶ cm/s	O=C(O)C1CCN(c2ccc3c(=O)c4c(C(F)(F)F)ccc(Cl)c4oc3c2)C1 (configuration not stated)	1210 nM	> 50 µM			
